Experimental data taken from PMC3261798, “Design, Synthesis, and Biological Evaluation of PKD Inhibitors” (Pharmaceutics, 2011).
Where a name gives a salt, the structure may show the parent alone.

Experiments:
PKD1 [1] = biological target: T1, PKD1 (Homo sapiens, UniProt Q15139); assay: IMAP-based PKD Fluorescence Polarization (FP) assay, automated HTS format; type: biochemical; conditions: mean ± SEM, n = number of independent experiments
T1 sequence (Q15139 1-912): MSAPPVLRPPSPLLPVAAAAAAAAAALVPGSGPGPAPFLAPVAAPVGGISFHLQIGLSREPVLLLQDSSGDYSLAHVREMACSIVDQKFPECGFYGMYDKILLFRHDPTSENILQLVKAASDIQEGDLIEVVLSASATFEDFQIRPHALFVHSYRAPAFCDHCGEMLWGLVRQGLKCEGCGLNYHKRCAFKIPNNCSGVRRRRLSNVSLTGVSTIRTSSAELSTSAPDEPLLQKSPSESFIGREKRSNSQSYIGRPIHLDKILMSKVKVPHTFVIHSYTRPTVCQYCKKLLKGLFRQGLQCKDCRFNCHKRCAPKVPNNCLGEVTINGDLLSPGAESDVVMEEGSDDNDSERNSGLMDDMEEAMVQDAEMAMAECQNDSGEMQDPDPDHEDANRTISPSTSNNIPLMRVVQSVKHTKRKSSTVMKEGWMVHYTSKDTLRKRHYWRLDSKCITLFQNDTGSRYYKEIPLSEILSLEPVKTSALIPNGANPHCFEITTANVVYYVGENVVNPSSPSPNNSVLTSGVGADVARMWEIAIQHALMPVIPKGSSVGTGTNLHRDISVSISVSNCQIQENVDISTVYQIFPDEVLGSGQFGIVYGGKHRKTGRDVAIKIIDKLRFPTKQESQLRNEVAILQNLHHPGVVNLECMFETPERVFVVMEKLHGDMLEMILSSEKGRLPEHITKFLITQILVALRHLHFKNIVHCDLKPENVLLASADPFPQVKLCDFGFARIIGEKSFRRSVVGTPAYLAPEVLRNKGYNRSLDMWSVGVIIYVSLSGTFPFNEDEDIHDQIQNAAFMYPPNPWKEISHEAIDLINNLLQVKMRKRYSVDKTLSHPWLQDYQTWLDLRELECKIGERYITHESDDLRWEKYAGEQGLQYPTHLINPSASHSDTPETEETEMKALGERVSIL
Experimental: An automated, HTS formatted IMAP-based PKD Fluorescence Polarization (FP) assay was used to assess the specificity of the PKD analogs as previously described. […] Kinase reactions were incubated for 90 min at room temperature and stopped by the addition of IMAP binding reagent. Assay plates were then incubated for 2 h and IMAP-based FP data were captured on a Molecular Devices Spectra-Max M5 (Sunnyvale, CA, USA).

PKD1 [2] = biological target: T1, PKD1; assay: In vitro radiometric PKD kinase activity assay; type: biochemical; set-up: purchased Biomol International; conditions: for IC50: read-out: IC50 Radiometric PKD1; for inhibitory activity against PKD (in words): preliminary biological data for kmg-NB5-13 and kmg-NB5-15
Experimental: In vitro radiometric PKD kinase assays were conducted as previously described. Briefly, 50 ng recombinant human PKD1 (Biomol International, Plymouth Meeting, PA, USA) was incubated at 30 °C for 10 min with a reaction mixture containing 2.5 μg syntide-2 (Sigma), 70 μM ATP, and 1 μCi γ-^32 P-ATP (PerkinElmer, Boston, MA, USA) in kinase buffer (50 mM Tris-HCl pH 7.5, […], and 10 mM […]). 25 μL of the reaction mixture was then spotted on Whatman P81 filter paper (Whatman Inc., Clifton, NJ, USA), and filter papers were washed three times with 0.5% phosphoric acid, dried, then counted using a Beckman LS6500 multi-purpose scintillation counter.

[3] = mean ± SEM, n = number of independent experiments

Compound | IC50 IMAP-FP PKD1 (PKD1 [1]) | melting point | also measured
CC(C)(C)[Si](C)(C)Oc1ccc2oc3c(c2c1)CCCNC3=O [kb-NB77-77, 7-(tert-Butyldimethylsilyloxy)-2,3,4,5-tetrahydro-[1]benzoxolo[2,3-c]azepin-1-one] | not inhibitory | 209 to 212 °C | –
O=C1NCCSc2c1sc1ccc(OCc3ccccc3)cc21 [kb-NB123-66, 3,4-Dihydro-9-benzyloxy-[1]benzothieno[2,3-f]-1,4-thiazepin-5(2H)-one] | not inhibitory | 247 to 249 °C | –
O=C1NCCCc2c1oc1cc(Cl)c(O)c(Cl)c21 [kb-NB96-43, 6,8-Dichloro-7-hydroxy-2,3,4,5-tetrahydro-[1]benzoxolo[2,3-c]azepin-1-one] | not inhibitory | 298 to 301 °C | –
O=C1NCCSc2c1sc1ccc(N=C=S)cc21 [mcf292-05, 3,4-Dihydro-9-isothiocyanato-[1]benzothieno[2,3-f]-1,4-thiazepin-5(2H)-one] | – | 253 to 253.3 °C | IC50 (PKD1 [2]; [3]): 2.77 µM
O=C1NCCSc2c1sc1cnc(O)nc21 (as salt: hydrochloride) [kmg-NB4-69A, 2-Hydroxy-7H,8H,9H-1,4-thiazepino[7′,6′-5,4]thiopheno[3,2-d]pyrimidin-6-one] | – | 335.9 °C (dec.) | –
COc1nc(OC)c2sc3c(c2n1)SCCNC3=O [kmg-NB5-13C, 2,4-Dimethoxy-7H,8H,9H-1,4-thiazepino[7′,6′-5,4]thiopheno[3,2-d]pyrimidin-6-one] | – | 288 °C (dec.) | IC50 (PKD1 [2]; [3]): > 30 µM; inhibitory activity against PKD (in words) (PKD1 [2]): absence of inhibitory activity
O=C1NCCC(=NOCc2ccccc2)c2c1oc1ccc(O)cc21 [kb-NB142-10, 5-(Benzyloxyimino)-7-hydroxy-2,3,4,5-tetrahydro-[1]benzoxolo[2,3-c]azepin-1-one] | not inhibitory | 103 to 110 °C | –
CC(=O)Nc1ccc2[nH]c3c(c2c1)CCCNC3=O [kb-NB123-94] | not inhibitory | > 300 °C | –
CC(=O)Oc1ccc2oc3c(c2c1)CCCNC3=O [kb-NB123-36, 7-Acetoxy-2,3,4,5-tetrahydro-[1]benzoxolo[2,3-c]azepin-1-one] | – | 196 to 197 °C | IC50 (PKD1 [1]): 84.9 ± 3.21 µM
O=c1oc2ccc(O)c(Cl)c2c2c1NCCC2 [kb-NB96-47-1, 10-Chloro-9-hydroxy-1,2,3,4-tetrahydrochromeno[3,4-b]pyridin-5-one] | not inhibitory | 211 to 213 °C | –
COc1ccc2sc3c(c2c1)SCCN(C)C3=O [kb-NB165-16, 2,3-Dihydro-4-methyl-9-methoxy-[1]benzothieno[2,3-f]-1,4-thiazepin-5(2H)-one] | – | 160 to 161 °C | IC50 (PKD1 [2]; [3]): 4.57 ± 0.78 µM
C=CCOc1ccc2oc3c(c2c1Cl)CCCNC3=O [kb-NB96-50, 7-Allyloxy-6-chloro-2,3,4,5-tetrahydro-[1]benzoxolo[2,3-c]azepin-1-one] | not inhibitory | 192 to 194 °C | –
O=C1NCCc2c1[nH]c1ccc(OCc3ccccc3)cc21 [kb-NB123-52, 2,3,4,9-Tetrahydro-6-benzyloxy-1H-pyrido[3,4-b]indol-1-one] | not inhibitory | 208 to 210 °C | –
CC(=O)Nc1ccc2[nH]c3c(c2c1)CCNC3=O [kb-NB123-93, N-(2,3,4,9-Tetrahydro-1-oxo-1H-pyrido[3,4-b]indol-6-yl)-acetamide] | not inhibitory | > 300 °C | –
O=C(CCl)Nc1ccc2sc3c(c2c1)SCCNC3=O [mcf292-09, 3,4-Dihydro-9-(2-chloroacetamido)-[1]benzothieno[2,3-f]-1,4-thiazepin-5(2H)-one] | – | 229 to 230 °C (dec.) | IC50 (PKD1 [2]; [3]): 1.5 µM
Cc1ccc(S(=O)(=O)NN=C2CCNC(=O)c3oc4ccc(O)cc4c32)cc1 [kb-NB142-11, 7-Hydroxy-5-[2-{(4-methylphenyl)sulfony}hydrazono]-2,3,4,5-tetrahydro-[1]benzoxolo[2,3-c]azepin-1-one] | – | 220 to 224 °C | IC50 (PKD1 [1]): 38.2 ± 1.17 µM
O=C1NCCCc2c1[nH]c1ccc(OCc3ccccc3)cc21 [kb-NB123-53, 3,4,5,10-Tetrahydro-7-benzyloxy-azepino[3,4-b]indol-1(2H)-one] | not inhibitory | – | –
CC=Cc1c(O)ccc2oc3c(c12)CCCNC3=O [kb-NB96-30, 6-[(E)-2-(Prop-1-enyl) ]-7-hydroxy-2,3,4,5-tetrahydro-[1]benzoxolo[2,3-c]azepin-1-one] | – | > 300 °C | –
COc1nc(O)c2sc3c(c2n1)SCCNC3=O [kmg-NB5-15A, 4-Hydroxy-2-methoxy-7H,8H,9H-1,4-thiazepino[7′,6′-5,4]thiopheno[3,2-d]pyrimidin-6-one] | – | 295 °C (dec.) | inhibitory activity against PKD (in words) (PKD1 [2]): absence of inhibitory activity
CC(C)(C)[Si](C)(C)Oc1ccc2oc(=O)c3c(c2c1)CCCN3 [kb-NB77-78, 9-(tert-Butyldimethylsilyloxy)-1,2,3,4-tetrahydrochromeno[3,4-b]pyridin-5-one] | not inhibitory | 117 to 119 °C | –

The next lines start with results.

IC50 IMAP-FP PKD1 (PKD1 [1]) | melting point | Compound | also measured
– | 150 to 151 °C | COc1ccc2oc3c(c2c1)CCCN(C)C3=O [kb-NB96-04, 7-Methoxy-2-methyl-2,3,4,5-tetrahydro-[1]benzoxolo[2,3-c]azepin-1-one] | IC50 (PKD1 [1]): > 100 µM
– | 265 to 268 °C | CN1CCSc2c(sc3ccc(O)cc23)C1=O [kb-NB165-17, 2,3-Dihydro-4-methyl-9-hydroxy-[1]benzothieno[2,3-f]-1,4-thiazepin-5(2H)-one] | IC50 (PKD1 [2]; [3]): 0.45 ± 0.05 µM
– | 261 to 263 °C | COc1ccc2oc3c(c2c1)CCCNC3=O [kb-NB77-56, 7-Methoxy-2,3,4,5-tetrahydro-[1]benzoxolo[2,3-c]azepin-1-one] | IC50 (PKD1 [1]): 2.4 ± 0.14 µM; IC50 (PKD1 [2]; [3]): 2.39 µM
– | 230 to 232 °C (dec.) | Oc1ccc2oc3c(c2c1)CCCN1CCN=C31 [kb-NB165-15, 9-Hydroxy-3,5,6,7-tetrahydro-2H-benzoxolo[2,3-c]imidazo[1,2-a]azepine] | IC50 Radiometric PKD1 (PKD1 [2]; [3]): not inhibitory
not inhibitory | 168 to 172 °C | COc1ccc2oc3c(c2c1)CCN(C)C3=O [kb-NB123-37, 6-Methoxy-2-methyl-3,4-dihydrobenzoxolo[2,3-c]pyridin-1(2H)-one] | –
not inhibitory | 235 to 237 °C | O=C(OCc1ccccc1)N1CCCc2c1c(=O)oc1ccc(O)cc21 [kb-NB77-91, Benzyl 9-hydroxy-5-oxo-1,2,3,4-tetrahydrochromeno[3,4-b]pyridine-4-carboxylate] | –
not inhibitory | 90 to 91 °C | C=CCOc1ccc2oc(=O)c3c(c2c1)CCCN3 [kb-NB77-83, 9-Allyloxy-1,2,3,4-tetrahydrochromeno[3,4-b]pyridin-5-one] | –
not inhibitory | 155 to 157 °C | CC(=O)Oc1ccc2oc3c(c2c1)CCCN(C(C)=O)C3=O [kb-NB123-45-1, 2-Acetyl-1-oxo-2,3,4,5-tetrahydro-[1]benzoxolo[2,3-c]azepin-7-yl acetate] | –
– | 237 to 241 °C | COc1ccc2oc3c(c2c1)CCNC3=O [kb-NB123-32, 6-Methoxy-3,4-dihydrobenzoxolo[2,3-c]pyridin-1(2H)-one] | IC50 (PKD1 [1]): > 100 µM
– | 327 to 332 °C | O=C1NCCCc2c1oc1cc(Cl)c(O)cc21 [kb-NB96-47-5, 8-Chloro-7-hydroxy-2,3,4,5-tetrahydro-[1]benzoxolo[2,3-c]azepin-1-one] | –
– | 282 to 284 °C | CN1CCCc2c(oc3ccc(O)cc23)C1=O [kb-NB142-25, 7-Hydroxy-2-methyl-2,3,4,5-tetrahydro-[1]benzoxolo[2,3-c]azepin-1-one] | IC50 (PKD1 [2]; [3]): 4 ± 1.1 µM
